Assay results reported in PubChem BioAssay AID248 (DTP/NCI, 2004).
Values joined by “and” are separate entries in the source; they are usually repeats but may differ in a detail not shown here. Equal values may be shown once. Inconclusive results and toxic doses are left out. Rule as the data show it: active = T/C of 150% or more; inactive = T/C below 125%.

Tested on: L1210 leukemia ip in BDF1 mice, survival T/C
Assay: NCI In Vivo Anticancer Drug Screen. Data for tumor model L1210 Leukemia (intraperitoneal) in B6D2F1 (BDF1) mice
Details: endpoint: mean survival time, higher = longer survival
How it was run: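 Survival endpoint. Drug-treated group vs vehicle group, expressed as T divided by C. Tumor passaged by transplantation.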

[1] = dose: 100.0 mg/kg/injection, schedule: Q04DX003 (ip), vehicle: saline
[2] = dose: 100.0 mg/kg/injection, schedule: Q01DX009 (ip), vehicle: saline with Tween-80
[3] = dose: 200.0 mg/kg/injection, schedule: Q01DX009 (ip), vehicle: saline with Tween-80
[4] = dose: 100.0 mg/kg/injection, schedule: Q04DX003 (ip), vehicle: saline with Tween-80
[5] = dose: 200.0 mg/kg/injection, schedule: Q04DX003 (ip), vehicle: saline with Tween-80
[6] = dose: 400.0 mg/kg/injection, schedule: Q04DX003 (ip), vehicle: saline with Tween-80
[7] = dose: 100.0 mg/kg/injection, schedule: Q01DX009 (ip), vehicle: Klucel (hydroxypropylcellulose) (HPC)
[8] = dose: 200.0 mg/kg/injection, schedule: Q01DX009 (ip), vehicle: Klucel (hydroxypropylcellulose) (HPC)
[9] = dose: 400.0 mg/kg/injection, schedule: Q01DX009 (ip), vehicle: Klucel (hydroxypropylcellulose) (HPC)
[10] = dose: 50.0 mg/kg/injection, schedule: Q01DX009 (ip), vehicle: saline
[11] = dose: 100.0 mg/kg/injection, schedule: Q01DX009 (ip), vehicle: saline
[12] = dose: 200.0 mg/kg/injection, schedule: Q04DX003 (ip), vehicle: saline
[13] = dose: 400.0 mg/kg/injection, schedule: Q04DX003 (ip), vehicle: saline
[14] = dose: 100.0 mg/kg/injection, schedule: Q01DX001 (ip), vehicle: saline
[15] = dose: 100.0 mg/kg/injection, schedule: Q04DX003 (ip), vehicle: Klucel (hydroxypropylcellulose) (HPC)
[16] = dose: 200.0 mg/kg/injection, schedule: Q01DX001 (ip), vehicle: saline
[17] = dose: 75.0 mg/kg/injection, schedule: Q01DX001 (ip), vehicle: saline
[18] = dose: 100.0 mg/kg/injection, schedule: Q04DX002 (ip), vehicle: Klucel (hydroxypropylcellulose) (HPC)
[19] = dose: 200.0 mg/kg/injection, schedule: Q04DX002 (ip), vehicle: Klucel (hydroxypropylcellulose) (HPC)
[20] = dose: 400.0 mg/kg/injection, schedule: Q04DX002 (ip), vehicle: Klucel (hydroxypropylcellulose) (HPC)
[21] = dose: 100.0 mg/kg/injection, schedule: Q04DX002 (ip), vehicle: saline with Tween-80
[22] = dose: 200.0 mg/kg/injection, schedule: Q04DX002 (ip), vehicle: saline with Tween-80
[23] = dose: 400.0 mg/kg/injection, schedule: Q04DX002 (ip), vehicle: saline with Tween-80

Measured: T/C

CC[n+]1ccccc1CCC(=O)Nc1ccccc1
inactive: dose: 25.0 mg/kg/injection, schedule: Q04DX003 (ip), vehicle: saline 97 % of control | dose: 50.0 mg/kg/injection, schedule: Q04DX003 (ip), vehicle: saline 92 % of control | [1] 95 % of control

Cc1ccc(S(=O)(=O)N=N/C=C2/C=CC=CN2O)cc1
inactive: dose: 40.0 mg/kg/injection, schedule: Q01DX009 (ip), vehicle: saline 93 % of control | dose: 60.0 mg/kg/injection, schedule: Q01DX009 (ip), vehicle: saline 96 % of control | dose: 90.0 mg/kg/injection, schedule: Q01DX009 (ip), vehicle: saline 94 % of control | dose: 135.0 mg/kg/injection, schedule: Q01DX009 (ip), vehicle: saline 104 % of control | dose: 175.0 mg/kg/injection, schedule: Q01DX009 (ip), vehicle: saline with Tween-80 111 % of control

CC(=O)NCc1ccc([N+](=O)[O-])cc1
inactive: dose: 25.0 mg/kg/injection, schedule: Q01DX009 (ip), vehicle: saline with Tween-80 100 % of control | dose: 50.0 mg/kg/injection, schedule: Q01DX009 (ip), vehicle: saline with Tween-80 107 % of control | [2] 104 % of control | [3] 111 % of control

COc1ccc(NC(=O)N2CCOCC2)cc1OC
inactive: [4] 102 % of control | [5] 96 % of control | [6] 89 % of control

COc1cc(C(=O)NNC(=O)c2cccc(C)c2)cc(OC)c1OC
inactive: [7] 100 % of control | [8] 95 % of control | [9] 105 % of control

O=c1[nH]nnc2ccccc12
inactive: [10] 90 % of control | [11] 90 % of control | dose: 100.0 mg/kg/injection, schedule: Q04DX003 (ip), vehicle: alcohol 98 % of control | dose: 200.0 mg/kg/injection, schedule: Q04DX003 (ip), vehicle: alcohol 100 % of control

O=C(NC1CCCCC1)C1C2CC3OC(=O)C1C3C2 (stereo unspecified)
inactive: [4] 101 % of control | [1] 104 % of control | [5] 97 % of control | [12] 98 % of control | [6] 101 % of control | [13] 104 % of control

Cc1ccc(S(=O)(=O)NS(=O)(=O)c2ccc(C)cc2)cc1
inactive: [14] 101 % of control | [15] 100 % of control | [16] 106 % of control

COC(=O)/C=C\n1cnc2ccccc21
inactive: [17] 109 % of control | dose: 150.0 mg/kg/injection, schedule: Q01DX001 (ip), vehicle: saline 112 % of control | dose: 300.0 mg/kg/injection, schedule: Q01DX001 (ip), vehicle: saline 107 % of control

COc1ccc(OC)c(OC)c1CC(C)N (stereo unspecified)
inactive: dose: 25.0 mg/kg/injection, schedule: Q01DX009 (ip), vehicle: saline 108 % of control | [10] 104 % of control

CC(C)CCCC(C)C1CCC2C3CCC4CC(=O)CCC4(C)C3CCC12C (stereo unspecified)
inactive: dose: 12.5 mg/kg/injection, schedule: Q01DX009 (ip), vehicle: Klucel (hydroxypropylcellulose) (HPC) 104 % of control | dose: 25.0 mg/kg/injection, schedule: Q01DX009 (ip), vehicle: Klucel (hydroxypropylcellulose) (HPC) 107 % of control and 90 % of control | [7] 90 % of control | [18] 87 % of control | [19] 93 % of control | [20] 107 % of control

COc1ccc(C(=O)NC(=S)Nc2ccc(O)cc2)cc1
inactive: [2] 97 % of control and 104 % of control | [21] 98 % of control | [4] 99 % of control | [3] 108 % of control and 109 % of control | [22] 104 % of control | [5] 94 % of control | dose: 400.0 mg/kg/injection, schedule: Q01DX009 (ip), vehicle: saline with Tween-80 98 % of control and 101 % of control | [23] 95 % of control | [6] 96 % of control

O=C1c2cscc2Cc2sccc21
inactive: dose: 100.0 mg/kg/injection, schedule: Q01DX001 (ip), vehicle: saline with Tween-80 95 % of control | dose: 200.0 mg/kg/injection, schedule: Q01DX001 (ip), vehicle: saline with Tween-80 92 % of control | dose: 400.0 mg/kg/injection, schedule: Q01DX001 (ip), vehicle: saline with Tween-80 88 % of control

Cc1cc(C)c2c(c1)C/C2=N\O
inactive: [18] 106 % of control | [19] 106 % of control | [20] 103 % of control

CCCCCCC(CCC)CCCCCC
inactive: [21] 98 % of control | [22] 104 % of control | [23] 98 % of control

C(/C=N/N(c1ccccc1)c1ccccc1)=N\N(c1ccccc1)c1ccccc1
inactive: [7] 97 % of control | [15] 101 % of control | [8] 92 % of control | dose: 200.0 mg/kg/injection, schedule: Q04DX003 (ip), vehicle: Klucel (hydroxypropylcellulose) (HPC) 106 % of control | [9] 95 % of control | dose: 400.0 mg/kg/injection, schedule: Q04DX003 (ip), vehicle: Klucel (hydroxypropylcellulose) (HPC) 93 % of control

CCCCCCCCCCCC(CCCCCCCC)C1CCCCC1 (stereo unspecified)
inactive: dose: 100.0 mg/kg/injection, schedule: Q01DX001 (ip), vehicle: saline + alcohol 101 % of control | dose: 200.0 mg/kg/injection, schedule: Q01DX001 (ip), vehicle: saline + alcohol 103 % of control | dose: 400.0 mg/kg/injection, schedule: Q01DX001 (ip), vehicle: saline + alcohol 108 % of control

CCn1cc(C(=O)O)c(=O)c2cc3c(cc21)OCO3
inactive: dose: 100.0 mg/kg/injection, schedule: Q01DX001 (ip), vehicle: other 96 % of control | dose: 200.0 mg/kg/injection, schedule: Q01DX001 (ip), vehicle: other 108 % of control | dose: 400.0 mg/kg/injection, schedule: Q01DX001 (ip), vehicle: other 98 % of control

CC(N)C(=O)NC(CC(N)=O)C(=O)O (stereo unspecified)
inactive: dose: 25.0 mg/kg/injection, schedule: Q04DX002 (ip), vehicle: saline 95 % of control | dose: 50.0 mg/kg/injection, schedule: Q01DX001 (ip), vehicle: carboxymethylcellulose (CMC) 97 % of control | dose: 50.0 mg/kg/injection, schedule: Q04DX002 (ip), vehicle: saline 100 % of control | dose: 100.0 mg/kg/injection, schedule: Q01DX001 (ip), vehicle: carboxymethylcellulose (CMC) 97 % of control | dose: 100.0 mg/kg/injection, schedule: Q04DX002 (ip), vehicle: saline 106 % of control | dose: 200.0 mg/kg/injection, schedule: Q01DX001 (ip), vehicle: carboxymethylcellulose (CMC) 97 % of control | dose: 400.0 mg/kg/injection, schedule: Q01DX001 (ip), vehicle: carboxymethylcellulose (CMC) 95 % of control

CC(C)(O)CNC1CCCCC1
inactive: [17] 108 % of control

C[N+]1=COCC1(C)C
inactive: [11] 104 % of control | [1] 99 % of control | dose: 200.0 mg/kg/injection, schedule: Q01DX009 (ip), vehicle: saline 101 % of control | [12] 94 % of control | dose: 400.0 mg/kg/injection, schedule: Q01DX009 (ip), vehicle: saline 115 % of control | [13] 97 % of control

CCC(CCC(C)C1CCC2C3CC=C4CC(OC(=O)Nc5ccccc5)CCC4(C)C3CCC12C)C(C)C (stereo unspecified)
inactive: [21] 87 % of control | [22] 87 % of control | [23] 94 % of control

COc1ccc(OC)c(C(=O)CC(O)(C(F)(F)F)C(F)(F)F)c1
inactive: [4] 94 % of control | [5] 90 % of control | [6] 99 % of control

CC(=O)Nc1ccc(S(=O)(=O)OCCC#N)cc1
inactive: [4] 99 % of control | [5] 99 % of control | [6] 90 % of control

CC(=O)OC1CCC2(C)C(=CCC3C2CCC2(C)C3CC3C(c4ccccc4)=NN(c4ccccc4)C32C(=O)c2ccccc2)C1 (stereo unspecified)
inactive: dose: 25.0 mg/kg/injection, schedule: Q04DX002 (ip), vehicle: Klucel (hydroxypropylcellulose) (HPC) 104 % of control | dose: 50.0 mg/kg/injection, schedule: Q04DX002 (ip), vehicle: Klucel (hydroxypropylcellulose) (HPC) 93 % of control | [18] 111 % of control

N#CC(c1ccc(N)cc1)c1ccc(F)cc1 (stereo unspecified)
inactive: dose: 50.0 mg/kg/injection, schedule: Q01DX001 (ip), vehicle: saline 97 % of control | [14] 97 % of control | [16] 97 % of control
